Patent US9040521B2, “Methods and compositions for modulating tau levels” (THE J. DAVID GLADSTONE INSTITUTES, priority 2009, dated 2015)

Key:
[1] = test system: tau acetylation in primary neurons; test: western blot of ac-tau, t-tau and p-tau in primary cortical neurons; type: cell-based, rat
Protocol: (§1) Primary cultures were established from cortices of Sprague-Dawley rat pups (Charles River Laboratories) or SIRT1^F/F mice on postnatal day 0 or 1. Purified cells were plated at 160,000 cells/ml in Neurobasal medium supplemented with B27 (Invitrogen) on poly-ornithine coated plates. All treatments were performed at 7-13 DIV in Neurobasal medium supplemented with N2 (Invitrogen) unless noted otherwise.
(§2) Cells or human or mouse brain tissues were lysed in RIPA buffer containing protease inhibitor cocktail (Sigma), 1 mM phenylmethyl sulfonyl fluoride (PMSF) (Sigma), phosphatase inhibitor cocktail (Roche), and HDAC inhibitors, including 5 mM nicotinamide (Sigma) and 1 μM trichostatin A (Sigma). After sonication, lysates from human or mouse brain tissues were centrifuged at 170,000 g at 4° C. for 15 min and at 18,000 g at 4° C. for 10 min. Supernatants were collected and analyzed by western blot. Bands in immunoblots were visualized by enhanced chemiluminescence (Pierce) and quantified by densitometry and Quantity One 4.0 software (Bio-Rad, Hercules, Calif.).

tau transcripts = test: real-time RT-PCR of tau transcripts in primary neurons; type: cell-based, rat; settings: treatment for 8 h
Protocol: as §1

[2] = test system: AT8-positive p-tau in primary neurons expressing hTauP301L; test: p-tau in primary neurons expressing hTauP301L; type: cell-based; settings: 20 μM, DIV=12
Protocol: as §1
Lentivirus was generated, purified, and used for infection as described. Chen et al. (2005) supra. Recombinant lentivirus was produced by co-transfection of the shuttle vector (FUGW), two helper plasmids, delta8.9 packaging vector, and VSV-G envelope vector into 293T cells and purified by ultracentrifugation. Viral titers were measured by p24 enzyme-linked immunosorbent assays at the Gladstone-UCSF Laboratory of Clinical Virology.
as §2, with “After sonication, lysates from human or mouse brain tissues were centrifuged at 170,000 g at 4° C. for 15 min and at 18,000 g at 4° C. for 10 min.” left out

[3] = test system: six other acetyltransferases (serotonin N-acetyltransferase, pCAF, GCN5, Rtt109, Sas, MOZ); settings: C646 at 10 μM, cell-free; cited from earlier work
[4] = test system: tau ubiquitination in HEK293T cells; test: in vivo ubiquitination assay in HEK293T cells; type: cell-based, human
Protocol: Procedures were modified from a published study. Oh et al. (2009) Nat Cell Biol 11:295. HEK293T cells were transfected with expression vectors encoding FLAG-tagged human tau and HA-ubiquitin with or without Myc-SIRT1 (wildtype or H363Y mutant). After 2 h of incubation, cells were treated with EX527, resveratrol, or dimethylsulfoxide (DMSO) in Dulbecco's modified Eagle's medium and incubated for 20 h. MG-132 (20 μM) was added and incubated for 4 h. Cells were lysed in ubiquitination buffer (20 mM Tris-HCl, pH 7.5, 0.1 mM EDTA, 0.2% Triton X-100, 150 mM NaCl, and protease inhibitor cocktail). Supernatant proteins were immunoprecipitated with FLAG M2 agarose beads (Sigma) for 3 h at 4° C. Reactions were washed at least three times with ubiquitination buffer and analyzed by SDS-PAGE and western blot with anti-HA antibody (Cell Signaling Technology).

[5] = test system: turnover of endogenous tau in primary neurons; test: tau turnover in primary neurons treated with cycloheximide; type: cell-based, rat
Protocol: as §1, §2
It was then directly examined whether enhancing acetylation of tau slows the turnover of endogenous tau. Primary neurons were treated with EX527 to enhance tau acetylation and with cycloheximide (CHX) to inhibit translation of new proteins. […] Consistent with this notion, ac-tau appears to be degraded slower than that of t-tau.

[6] = EX527 50 μM, rat primary neurons DIV=10

SMILES: CC1=NN(c2ccc(C(=O)O)cc2)C(=O)/C1=C\c1ccc(-c2cc(C)c(C)cc2[N+](=O)[O-])o1 [Compound C646]
- t-tau levels ([1]; 20 μM, 2 h, primary cortical neurons DIV=9): without affecting
- levels of t-tau ([1]; 20 μM, 8 h, primary rat cortical neurons): remained unchanged
- levels of t-tau ([1]; 20 μM, 20 h, primary cortical neurons): lowered
- tau phosphorylated at serine 202 (AT8-positive p-tau) ([1]; 20 μM, within 2 h, primary cortical neurons): abolished
- ac-tau ([1]; 20 μM, within 2 h, primary cortical neurons DIV=9): eliminated
- levels of ac-tau ([1]; 20 μM, within 8 h, primary rat cortical neurons): drastically reduced
- tau transcripts (tau transcripts): did not suppress
- AT8-positive p-tau [2]: diminished
- inhibition of the six other acetyltransferases [3]: < 10%

SMILES: NC(=O)C1CCCc2c1[nH]c1ccc(Cl)cc21 (stereo not shown) [EX527]
- AT8-positive p-tau [1, 6]: markedly increased
- ac-tau [1, 6]: markedly increased
- levels of ac-tau relative to t-tau [1, 6]: significantly increased
- levels of p-tau relative to t-tau [1, 6]: significantly increased
- t-tau [1, 6]: markedly increased
- ac-tau levels ([4]; 1-50 μM, HEK293T cells): elevated
- polyubiquitination of tau ([4]; 1-50 μM, HEK293T cells, with MG132): prevented polyubiquitination of tau in a dose-dependent manner
- turnover of ac-tau ([5]; 10 μM, CHX, primary neurons): blocked the turnover
- accumulation of ac-tau ([5]; 50 μM, CHX, primary neurons): more pronounced accumulation
- half-life of t-tau (tau turnover) ([5]; 10-50 μM, CHX 0-8 h, rat primary neurons DIV=8): increased the half-life of t-tau in a dose-dependent manner
- degradation of AT8-positive p-tau ([5]; 10-50 μM, CHX, primary neurons): blocked the degradation

SMILES: Oc1ccc(C=Cc2cc(O)cc(O)c2)cc1 [resveratrol]
- tau ubiquitination ([4]; HEK293T cells transfected with SIRT1 H363Y mutant): not those with H363Y mutant
- tau ubiquitination ([4]; HEK293T cells transfected with wildtype SIRT1): significantly increased
